This note sets out measurements from patent US6753329B2, “Inhibitors of cyclin-dependent kinases, compositions and uses related thereto” (GPC Biotech Inc., priority 2001, dated 2004).

The target of assay [1] is T1, Cdk2/cyclin A (Homo sapiens, UniProt P24941).
T1 construct: made in house; host or cells: Sf9 cells
The assay is described as follows: Cdk2/cyclin A inhibition assay. Conditions: read-out: K2/A. The assay is classed as biochemical. The text has this:
(§1) Enzymes: Cdc2/cyclin B was obtained from commercial sources. Cdk2/his-cyclin Eshort was expressed in Sf9 cells. Cdk2/cyclin A, cdk4/cyclin D1, and cdk6/cyclin D2 were expressed in Sf9 cells. Protein kinase A (catalytic subunit, from bovine heart) and protein kinase C (mixed isozymes from rat brain) were obtained from commercial sources.

In assay [2] the target is T2, Cdk4/cyclin D1 (Homo sapiens, UniProt P11802).
T2 construct: made in house; host or cells: Sf9 insect cells
T2 sequence (P11802 whole entry, species assumed): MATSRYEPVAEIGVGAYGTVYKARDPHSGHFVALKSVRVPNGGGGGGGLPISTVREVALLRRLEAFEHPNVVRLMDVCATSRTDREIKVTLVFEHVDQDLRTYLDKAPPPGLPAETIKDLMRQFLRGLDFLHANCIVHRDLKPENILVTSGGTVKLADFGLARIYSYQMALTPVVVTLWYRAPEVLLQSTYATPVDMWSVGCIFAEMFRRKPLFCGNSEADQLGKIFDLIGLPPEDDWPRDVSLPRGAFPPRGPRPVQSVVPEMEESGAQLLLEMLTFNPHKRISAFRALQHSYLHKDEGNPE
T2 sequence (P24385 whole entry partner, species assumed): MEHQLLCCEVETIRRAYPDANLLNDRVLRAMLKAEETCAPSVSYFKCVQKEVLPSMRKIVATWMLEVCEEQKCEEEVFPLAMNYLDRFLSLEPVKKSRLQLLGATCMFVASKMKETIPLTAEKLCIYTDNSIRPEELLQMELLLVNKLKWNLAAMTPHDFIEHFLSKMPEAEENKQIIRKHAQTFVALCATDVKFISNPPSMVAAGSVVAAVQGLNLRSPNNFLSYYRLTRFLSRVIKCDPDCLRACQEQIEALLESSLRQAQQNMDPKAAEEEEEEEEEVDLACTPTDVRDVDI
The assay is described as follows: Cdk4/cyclin D1 inhibition, glutathione-sepharose capture assay. It counts as biochemical. Conditions: read-out: K4/D1.
Excerpt: as §1
(§2) Substrates: Histone H1 was from commercial sources. GST-Rb is glutathione-S-transferase fused to the N-terminal of residues 379-928 of the Rb protein.
(§3) Cdk2/cyclin E, Cdk4/cyclin D1, and Cdk6/cyclin D2 activity was determined using a glutathione-sepharose capture assay. The enzymes were expressed in Sf9 insect cells as heterodimers, and the substrate (GST-Rb) was glutathione-S-transferase fused to residues 379 to 928 of Rb retinoblastoma protein, expressed in E. coli. The assay solution contained 50 mM Tris.HCl, 10 mM MgCl2, 1 mM dithiothreitol, 50 μM adenosine triphosphate, 2 μCi [γ-^33P]adenosine triphosphate, 10% dimethylsulfoxide (from compounds), pH 7.5, 40 µg GST-Rb, and enzyme in a 100 μL volume. Compounds were added at various concentrations between 1 nM and 10 μM. The reaction was allowed to proceed for 15 min at 30° C. and was stopped by the addition of 70 μL of stop solution (237 mM disodium ethylenediamine tetraacetate, 105 mM adenosine triphosphate, pH 8.0). The GST-Rb was captured by binding to glutathione-sepharose bead (Amersham) for 110 min, and the suspension was filtered through a glass fiber filter. After washing the retained beads five time with phosphate-buffered saline containing 0.3% (w/v) Tween-20, the amount of ^33P incorporated was determined by scintillation counting after adding 100 μL scintillant. Relative activity was determined by dividing the amount of radioactivity incorporated in the presence of compound by the amount of radioactivity incorporated in a control experiment containing DMSO alone but no compound. The background radioactivity, determined in an experiment containing 50 mM disodium ethylenediamine tetraacetate in place of compound, was subtracted from all results before calculations.

Assay [3] has as its target T3, Cdc2/cyclin B (Homo sapiens, UniProt P06493).
T3 construct: purchased
Put plainly: Cdc2/cyclin B inhibition, TCA precipitation assay. The assay is classed as biochemical. Conditions: 50 μM ATP, Histone H1 substrate. The procedure: as §1
Assays: Cdc2/cyclinB activity was determined by measuring incorporation of radioactivity from adenosine [γ-^32P]triphosphate into Histone H1 using a TCA precipitation assay. Cdc2/cyclin B kinase and Histone H1 were obtained from commercial sources. The final assay solution contained 50 mM Tris.HCl, 10 mM MgCl2, 1 mM dithiothreitol, 50 μM adenosine triphosphate, 2 μCi ^32P, 10% dimethylsulfoxide (from compounds), pH 7.5, 20 μg Histone H1, 6 U enzyme in a 50 μL volume. Compounds were added at various concentrations between 1 nM and 10 μM. The reaction was started with the addition of enzyme, allowed to proceed for 20 min at 30° C., and stopped by the addition of 20 μL of stop solution (237 mM disodium ethylenediamine tetraacetate, 105 mM adenosine triphosphate, pH 8.0). The protein was precipitated by the addition of 35 μL 70% (w/v) trichloroacetic acid, and the precipitate was captured on a 96-well glass fiber filter plate (Millipore, Inc.), which had been wet with 25% (w/v) trichloroacetic acid. The filter was washed ten times with 25% (w/v) trichloroacetic acid, and the amount of incorporated ^32P was determined by scintillation counting after adding 100 μL scintillant (Microscint 20, Packard Instruments). Relative activity was determined by dividing the amount of radioactivity incorporated in the presence of compound by the amount of radioactivity incorporated in a control experiment containing DMSO alone but no compound. The background radioactivity, determined in an experiment containing 50 mM EDTA in place of compound, was subtracted from all results before calculations.
P=min+(max−min)(1/(1+(IC50/[I])^s)) (1)
where P=1—relative activity is relative inhibition, [I] is concentration of compound, max and min are the maximum and minimum relative inhibition (1 and 0, respectively) and s is the so-called Hill slope.

The target in assay [4] is T4, Cdk6/cyclin D2 (Homo sapiens, UniProt Q00534).
T4 construct: made in house; host or cells: Sf9 insect cells
T4 sequence (Q00534 whole entry, species assumed): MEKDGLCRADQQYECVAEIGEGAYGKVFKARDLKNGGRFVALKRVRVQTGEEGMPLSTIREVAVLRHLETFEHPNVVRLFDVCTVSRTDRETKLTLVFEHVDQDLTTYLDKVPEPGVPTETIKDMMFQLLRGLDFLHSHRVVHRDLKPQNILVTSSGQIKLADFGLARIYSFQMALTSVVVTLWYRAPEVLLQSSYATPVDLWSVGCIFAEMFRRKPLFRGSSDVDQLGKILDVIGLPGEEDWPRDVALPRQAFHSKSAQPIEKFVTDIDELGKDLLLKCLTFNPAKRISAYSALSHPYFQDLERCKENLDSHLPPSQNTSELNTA
T4 sequence (P30279 whole entry partner, species assumed): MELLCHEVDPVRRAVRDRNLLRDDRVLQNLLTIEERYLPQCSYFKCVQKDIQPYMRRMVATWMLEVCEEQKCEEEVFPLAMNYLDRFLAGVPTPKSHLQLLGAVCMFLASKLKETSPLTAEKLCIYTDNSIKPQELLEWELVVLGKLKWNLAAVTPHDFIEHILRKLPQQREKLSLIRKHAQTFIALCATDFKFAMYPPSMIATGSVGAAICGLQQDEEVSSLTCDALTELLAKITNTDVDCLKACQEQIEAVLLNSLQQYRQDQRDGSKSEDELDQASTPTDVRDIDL
The assay is described as follows: Cdk6/cyclin D2 inhibition, glutathione-sepharose capture assay. It counts as biochemical. Conditions: 50 μM ATP, GST-Rb substrate; read-out: K6/D2.
Excerpt: as §1, §2, §3

Assay [5] concerns the target T5, CDK2/cyclinE (Homo sapiens, UniProt P24941). The assay is described as follows: Cdk2/cyclin E inhibition, glutathione-sepharose capture assay. It counts as biochemical. On the set-up: made in house; host or cells: Sf9 insect cells. Conditions: 50 μM ATP, GST-Rb substrate; read-out: K2/E.
Excerpt: as §1, §2, §3

For assay [6], the target named is T6, Protein kinase A (catalytic subunit, from bovine heart) (Bos taurus, UniProt P00517).
T6 construct: Protein kinase A (catalytic subunit, from bovine heart); purchased; host or cells: bovine heart
The assay is described as follows: Protein kinase A inhibition, TCA precipitation assay. Conditions: 12 μM ATP, Histone H1; read-out: PKA. The assay is classed as biochemical. On the procedure:
as §1
Protein kinase C and protein kinase A were assayed using a TCA precipitation assay with Histone H1 as a substrate. For protein kinase A, the final assay contained 50 mM Tris, 10 mM MgCl2, 1 mM dithiothreitol, pH 7.5, 12 μM adenosine triphosphate, 10% (v/v) dimethylsulfoxide (from compounds), 20 μg Histone H1, 2 μCi [γ-^32P] adenosine triphosphate, 0.2 U protein kinase A in a 100 μL assay. A protein kinase C assay contained 50 mM Tris, 10 mM MgCl2, 1 mM dithiothreitol, 0.8 mM CaCl2, pH 7.5, 5 μM adenosine triphosphate, 10% (v/v) dimethylsulfoxide (from compounds), 20 μg Histone H1, 2 μCi [γ-^32P] adenosine triphosphate, 0.01 U protein. kinase C in a 50 μL assay. The assays were started by the addition of enzyme, allowed to react for 10 min at 30° C., and stopped by adding 0.4 volumes of 237 mM disodium ethylenediamine tetraacetate, 105 mM adenosine triphosphate, pH 8.0. The protein was precipitated from the stopped reaction by adding 0.5 volume 75% (w/v) trichloroacetic acid and captured by filtering through a 96-well glass fiber filtration apparatus (Millipore). The filters were washed ten times with 25% (w/v) trichloroacetic acid, and the amount of incorporated [^32P]phosphate was determined by adding 100 μl Microscint and scintillation counting.

Assay [7] has as its target c-Abl (Homo sapiens, UniProt P00519). Put plainly: c-Abl inhibition. It counts as biochemical.
Assay [8] addresses T5, CDK2/cyclinE. The assay is described as follows: BIACORE SPR binding of CDK2/cyclinE to compound-loaded CM5 chip. Conditions: 22° C., compound coupled to CM5 chip, Langmuir 1:1 model. The procedure: The affinity of chemical compounds to their corresponding binding partners may be determined, for example, using a BIACORE™ assay system (Biacore AB, Uppsala, SE). Other systems yielding a qualitatively similar result, such as, for example, those developed by Affinity Sensors (Cambridge, UK), will be readily apparent to those skilled in the art.
In a representative procedure, the binding of Compound R to its known binding partners CDK2/cyclinE was analyzed. The analysis was performed on a BLACORE 2000 SPR-Biosensor at 22° C. in a running buffer containing 20 mM HEPES (pH 7.4), 150 mM NaCl, 1 mM DTT and 0.005% Tween 20 (protein grade, Calbiochem). A 10 μM solution of Compound R was coupled at pH 8.0 to the dextrane-surface of a CM5 sensor-chip (research grade) via amide coupling chemistry. […] The association and dissociation of the CDK2/cyclinE complex onto the CM5-Compound R-loaded chip surface was measured at a flow rate of 30 μl/min. […]
The data were analyzed using the Bioevaluation software version 3.1 (Biacore AB, Uppsala, SE). […] The association and dissociation rates were determined separately or globally using a Langmuir 1:1 binding model. The affinities (KD) were calculated using the equation: […]

Like-named read-outs stand apart in the source and are kept apart here. Where only a bound is given, the exact number is not on record here.

Chain of c-Abl (P00519 whole entry): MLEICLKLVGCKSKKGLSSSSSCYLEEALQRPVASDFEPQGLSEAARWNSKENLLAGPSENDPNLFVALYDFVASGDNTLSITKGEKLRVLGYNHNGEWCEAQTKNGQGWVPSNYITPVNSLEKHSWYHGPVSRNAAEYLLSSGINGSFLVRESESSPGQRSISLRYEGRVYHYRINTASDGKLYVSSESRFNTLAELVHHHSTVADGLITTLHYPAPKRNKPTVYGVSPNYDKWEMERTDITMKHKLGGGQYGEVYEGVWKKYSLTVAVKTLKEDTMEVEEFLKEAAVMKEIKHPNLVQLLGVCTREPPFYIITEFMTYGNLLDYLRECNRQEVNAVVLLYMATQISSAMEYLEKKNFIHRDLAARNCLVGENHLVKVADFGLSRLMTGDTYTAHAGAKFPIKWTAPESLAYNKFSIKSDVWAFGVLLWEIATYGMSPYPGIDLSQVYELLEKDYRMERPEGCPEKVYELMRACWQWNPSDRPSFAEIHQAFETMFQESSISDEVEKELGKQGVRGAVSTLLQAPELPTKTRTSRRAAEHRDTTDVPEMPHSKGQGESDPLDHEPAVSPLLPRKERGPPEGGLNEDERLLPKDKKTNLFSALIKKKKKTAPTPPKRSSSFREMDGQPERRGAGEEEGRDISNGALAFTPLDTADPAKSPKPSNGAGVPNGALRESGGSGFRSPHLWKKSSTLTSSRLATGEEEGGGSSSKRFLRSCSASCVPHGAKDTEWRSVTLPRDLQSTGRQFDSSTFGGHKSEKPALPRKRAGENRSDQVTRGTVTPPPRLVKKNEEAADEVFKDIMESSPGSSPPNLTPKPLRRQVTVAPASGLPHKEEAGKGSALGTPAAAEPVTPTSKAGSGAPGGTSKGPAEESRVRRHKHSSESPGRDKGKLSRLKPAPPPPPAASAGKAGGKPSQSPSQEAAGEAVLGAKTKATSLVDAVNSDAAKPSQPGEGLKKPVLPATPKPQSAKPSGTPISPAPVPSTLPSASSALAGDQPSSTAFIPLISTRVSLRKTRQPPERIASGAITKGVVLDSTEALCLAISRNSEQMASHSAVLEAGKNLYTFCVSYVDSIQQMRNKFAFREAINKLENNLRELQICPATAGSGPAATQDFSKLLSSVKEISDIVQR
T3 sequence (P06493 whole entry, species assumed): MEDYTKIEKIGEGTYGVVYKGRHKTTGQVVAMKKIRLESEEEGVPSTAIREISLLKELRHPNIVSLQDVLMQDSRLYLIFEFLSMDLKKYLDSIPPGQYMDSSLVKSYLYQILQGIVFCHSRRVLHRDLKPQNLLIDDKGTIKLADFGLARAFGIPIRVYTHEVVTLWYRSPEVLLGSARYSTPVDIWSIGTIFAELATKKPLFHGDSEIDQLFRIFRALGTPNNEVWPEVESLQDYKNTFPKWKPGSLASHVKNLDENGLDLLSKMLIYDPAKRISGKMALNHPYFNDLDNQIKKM
T3 sequence (P14635 whole entry partner, species assumed): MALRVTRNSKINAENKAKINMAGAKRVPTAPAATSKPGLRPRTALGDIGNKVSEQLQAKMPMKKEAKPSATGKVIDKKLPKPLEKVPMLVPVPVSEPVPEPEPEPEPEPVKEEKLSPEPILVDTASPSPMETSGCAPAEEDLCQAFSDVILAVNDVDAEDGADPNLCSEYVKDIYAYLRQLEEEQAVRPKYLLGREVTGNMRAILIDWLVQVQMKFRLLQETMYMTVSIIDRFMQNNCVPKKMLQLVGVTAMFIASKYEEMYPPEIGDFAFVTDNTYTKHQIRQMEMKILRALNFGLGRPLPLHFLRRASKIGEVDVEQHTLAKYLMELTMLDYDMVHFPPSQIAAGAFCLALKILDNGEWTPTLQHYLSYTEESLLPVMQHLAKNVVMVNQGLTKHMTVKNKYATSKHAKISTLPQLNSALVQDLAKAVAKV

Take `CC(C)c1nn(-c2c(Cl)cc(Cl)cc2Cl)c2nc(Cc3ccc(OCCN4CCOCC4)cc3)[nH]c(=O)c12` [A]: the IC50 in assay [1] is under 100 nM; in assay [2] (50 μM ATP, GST-Rb substrate) it was under 1000 nM; in assay [2], under 1000 nM; in assay [3], under 1000 nM; in assay [4] it was under 1000 nM; in assay [5] it was under 100 nM.
As to `CC(C)c1nn(-c2c(Cl)cccc2Cl)c2nc(Cc3ccc(OP(=O)(O)O)cc3)[nH]c(=O)c12` [B], the IC50 is under 100 nM in assay [1]; under 10000 nM in assay [2] (50 μM ATP, GST-Rb substrate); under 100 nM in assay [3]; under 10 nM in assay [5].
Turning to `CC(C)c1nn(-c2c(Cl)cccc2Cl)c2nc(Cc3ccc(O)c(CN4CCN(C(C)C)CC4)c3)[nH]c(=O)c12` [Compound C], the IC50 in assay [1] was under 100 nM; in assay [2] (50 μM ATP, GST-Rb substrate) it was under 1000 nM; in assay [3] it was under 1000 nM; in assay [6] it was over 10000 nM; in assay [7], over 10000 nM; in assay [5], under 100 nM.
For `O=C(Nc1cccc2c1C(=O)c1c-2n[nH]c1-c1ccc(OCCN2CCCC2)cc1)NN1CCOCC1` [Compound I], the IC50 in assay [1] was under 100 nM; in assay [2] (50 μM ATP, GST-Rb substrate), under 10 nM; in assay [3], under 100 nM; in assay [5], under 100 nM.
For `Cc1cc(-c2[nH]nc3c2C(=O)c2c(NC(=O)NN4CCN(C)CC4)cccc2-3)ccc1OCCN1CCCC1` [Compound P], the IC50 in assay [5] was under 100 nM.
Turning to `CC(C)c1nn(-c2c(Cl)cc(Cl)cc2Cl)c2nc(Cc3ccc(OC(C)(C)C(=O)NCCOCCOCCOCCOCCOCCN)cc3)[nH]c(=O)c12` [Compound R], binding in assay [8] was characterised by a dissociation constant (Kd) of 8 nM.
Turning to `CC(C)c1nn(-c2c(Cl)cc(Cl)cc2Cl)c2nc(Cc3ccc(NS(=O)(=O)CCCN4CCOCC4)cc3)[nH]c(=O)c12` [D], the IC50 in assay [1] is under 100 nM; in assay [2] (50 μM ATP, GST-Rb substrate) it was under 1000 nM; in assay [3] it was under 1000 nM; in assay [5], under 100 nM.
`CC(C)N1CCN(CCOc2ccc(-c3[nH]nc4c3C(=O)c3c(NC(=O)NN5CCOCC5)cccc3-4)cc2)CC1` [E]: the IC50 in assay [1] is under 10 nM; in assay [2] (50 μM ATP, GST-Rb substrate), under 10 nM; in assay [2], under 10 nM; in assay [3] it was under 100 nM; in assay [4], under 10 nM; in assay [6], under 10000 nM. Besides, the values for the IC50 in assay [7] and in assay [5] were under 10000 nM and under 10 nM, respectively.
For the molecule `CN1CCN(NC(=O)Nc2cccc3c2C(=O)c2c-3n[nH]c2-c2ccc(OCCN3CCCC3)cc2)CC1` [F], the IC50 was under 100 nM in assay [1]; under 10 nM in assay [2] (50 μM ATP, GST-Rb substrate); under 10 nM in assay [2]; under 100 nM in assay [3]; under 10 nM in assay [4]; under 100 nM in assay [5].
Consider `CCCN(CCOc1ccc(-c2[nH]nc3c2C(=O)c2c(NC(=O)NN4CCOCC4)cccc2-3)cc1)CC1CC1` [G], for which the IC50 in assay [1] was under 100 nM; in assay [2] (50 μM ATP, GST-Rb substrate) it was under 10 nM; in assay [3], under 100 nM; in assay [6] it was over 10000 nM; in assay [7], over 10000 nM; in assay [5] it was under 100 nM.
Take `O=C(Nc1cccc2c1C(=O)c1c-2n[nH]c1-c1ccc(OCCN(CCO)CCO)cc1)NN1CCOCC1` [H]: the IC50 in assay [1] was under 100 nM; in assay [2] (50 μM ATP, GST-Rb substrate), under 100 nM; in assay [3] it was under 100 nM; in assay [5], under 100 nM.
On to `O=C(Nc1cccc2c1C(=O)c1c-2n[nH]c1-c1ccc(OP(=O)(O)O)cc1)NN1CCOCC1` [J], for which, in assay [5], the IC50 was under 100 nM.
As to `CC(C)N1CCN(Cc2cc(-c3[nH]nc4c3C(=O)c3c(NC(=O)NN5CCOCC5)cccc3-4)ccc2O)CC1` [K], the IC50 in assay [5] is under 100 nM.
Consider `Cc1cc(OCCN2CCCC2)ccc1-c1[nH]nc2c1C(=O)c1c(NC(=O)NN3CCN(C)CC3)cccc1-2` [L], for which the IC50 in assay [2] (50 μM ATP, GST-Rb substrate) was under 100 nM; in assay [3] it was under 100 nM; in assay [5] it was under 100 nM.
For the molecule `CN1CCN(NC(=O)Nc2cccc3c2C(=O)c2c-3n[nH]c2-c2ccc(OCCN3CCC[C@H]3CO)cc2)CC1` [M], the IC50 in assay [5] is under 100 nM.
For the molecule `CN1CCN(NC(=O)Nc2cccc3c2C(=O)c2c-3n[nH]c2-c2ccc(OCCN(CCO)CCO)cc2)CC1` [N], the IC50 in assay [3] was under 10 nM; in assay [5] it was under 100 nM.
For `CN1CCN(NC(=O)Nc2cccc3c2C(=O)c2c-3n[nH]c2-c2ccc(OCCN3CC[C@H](O)C3)cc2)CC1` [O], in assay [5], the IC50 is under 100 nM.
As for `CN1CCN(NC(=O)Nc2cccc3c2C(=O)c2c-3n[nH]c2-c2ccc(OCCN3CCOCC3)cc2)CC1` [Q], the IC50 was under 100 nM in assay [1]; under 10 nM in assay [2] (50 μM ATP, GST-Rb substrate); under 100 nM in assay [2]; under 100 nM in assay [3]; under 100 nM in assay [4]; under 10 nM in assay [5].
